For 44 compounds, IC50 results are on record in patent publication US20240025891A1 (Celgene Corporation, priority 2020, published 2024).

A value given as a limit tells only on which side of the number the result lay.

In this assay the test system is Onchocerca gutturosa adult male worms. The assay can be described thus: Onchocerciasis in vitro screening model Onchocerca gutturosa (worm motility score and MTT/formazan colorimetry). The note with it: Onchocerca gutturosa, read-out: O. gutt Act class.
Experimental: Onchocerciasis: In Vitro Screening Model Onchocerca gutturosa
Parasite and cell cultures. Onchocerca gutturosa adult male worms were obtained by dissection from the nuchal ligament connective tissues of naturally infected cattle, from Gambia, W Africa.
The worms were maintained for at least 24 h in culture before use in Eagles Minimum Essential Medium with Earl's Salts (Gibco, UK)+10% heat inactivated new born calf serum (Gibco, UK)+antibiotic cover of 200 units/ml penicillin, 200 μg/ml streptomycin and 0.5 μg/ml amphotericin B (Sigma, UK). Only normally active specimens were used in the test. All cultures and assays were conducted at 37° C. under an atmosphere of 5% CO2 in air.
Drug sensitivity assays. Compound stock solutions were prepared in 100% DMSO unless otherwise indicated and diluted into the medium. Any unused compound stocks were stored at −20° C. Assays were performed in sterile 24-well (2 ml) plates (Falcon, UK).
Worms were then transferred individually to each well of the plate using fine forceps. Worm viability was assessed using 2 parameters: • The measurement of mean worm motility scores on a scale of 0 (immotile) to 10 (maximum) every 24 h, terminating at 120 h, using an Olympus inverted microscope. • The biochemical evaluation of worm viability using MTT/formazan colorimetry. The MTT assay was carried out after the last motility reading (120 h). Single intact worms were placed in each well of a 48-well plate (Falcon, UK) containing 0.5 ml of a solution consisting of 0.5 mg/ml MTT (Sigma UK) in phosphate buffered saline, and then incubated for 30 min at 37° C. The worms were removed, blotted carefully, and individually transferred to separate wells of a 96-well microtiter plate, each containing 200 μl of DMSO to solubilize the formazan. After 1 h the plate was gently agitated to disperse the color evenly and the absorbance value (optical density) of the resulting formazan solution was determined at 490 nm using a multi-well scanning spectrophotometer (Elisa-reader, Dynatech, UK). Inhibition of formazan formation was correlated with worm damage or death.
Primary screen. New compounds were usually tested at 1.25×10^−5 M. Also expressed in μg/ml.
Secondary screen. […] Serial 1 in 4 drug dilutions was carried out to find activity endpoint and EC50 values for motility reduction and inhibition of formazan formation were produced. EC50 values were determined using Excel or Origin V7 scientific graphing and data analysis software.
Regarding `COc1ccc(-c2ncc(Nc3cc(OC(C)C)ccn3)s2)nc1` [Example 113, N-(4-isopropoxypyridin-2-yl)-2-(5-methoxypyridin-2-yl)thiazol-5-amine], the IC50 lay in the range of 500 to 5000 nM.

`Cc1ccnc(Nc2cnc(-c3ncccc3C)s2)c1` [Example 114, 2-(3-methylpyridin-2-yl)-N-(4-methylpyridin-2-yl)thiazol-5-amine]: the IC50 is under 200 nM.

Consider `Cc1ccnc(Nc2csc(-c3ncccc3C)n2)c1` [Example 115, 2-(3-methylpyridin-2-yl)-N-(4-methylpyridin-2-yl)thiazol-4-amine], for which the IC50 fell in the range of 500 to 5000 nM.

For the compound `Cc1cccnc1Nc1cc(-c2ccc(OC3CCOCC3)cn2)ns1` [Example 116, N-(3-methylpyridin-2-yl)-3-(5-(tetrahydro-2H-pyran-4-yloxy)pyridin-2-yl)isothiazol-5-amine], the IC50 fell in the range of 500 to 5000 nM.

As for `COc1ccc(-c2cc(Nc3cc(OC(C)C)ccn3)sn2)nc1` [Example 117, N-(4-isopropoxypyridin-2-yl)-3-(5-methoxypyridin-2-yl)isothiazol-5-amine], the IC50 fell in the range of 500 to 5000 nM.

Take `Cc1ccnc(Nc2cc(-c3ncccc3C)ns2)c1` [Example 118, 3-(3-methylpyridin-2-yl)-N-(4-methylpyridin-2-yl)isothiazol-5-amine]: the IC50 lay within 500 to 5000 nM.

`c1ccc(-c2ccnc(Nc3cc(-c4ccccn4)ns3)c2)cc1` [Example 119, N-(4-phenylpyridin-2-yl)-3-(pyridin-2-yl)isothiazol-5-amine]: the IC50 was 500 to 5000 nM.

On to `FC(F)(F)c1ccnc(Nc2nc(-c3ccccn3)cs2)c1` [Example 120, 4-(pyridin-2-yl)-N-(4-(trifluoromethyl)pyridin-2-yl)thiazol-2-amine], for which the IC50 is under 200 nM.

With `COc1ccnc(Nc2nc(-c3ccccn3)cs2)c1` [Example 121, N-(4-methoxypyridin-2-yl)-4-(pyridin-2-yl)thiazol-2-amine], the IC50 lay in the range of 200 to 500 nM.

Consider `Oc1ccc(Nc2nc(-c3ccccn3)cs2)nc1` [Example 122, 6-(4-(pyridin-2-yl)thiazol-2-ylamino) pyridin-3-ol], for which the IC50 is 500 to 5000 nM.

With `CCc1ccc(Nc2nc(-c3ccccn3)cs2)nc1` [Example 123, N-(5-ethylpyridin-2-yl)-4-(pyridin-2-yl)thiazol-2-amine], the IC50 is under 200 nM.

As for `Cc1cnc(Nc2nc(-c3ccccn3)cs2)c(C)c1` [Example 124, N-(3,5-dimethyl-pyridin-2-yl)-4-(pyridin-2-yl)thiazol-2-amine], the IC50 is under 200 nM.

Take `c1ccc(-c2cccnc2Nc2nc(-c3ccccn3)cs2)cc1` [Example 125, N-(3-phenylpyridin-2-yl)-4-(pyridin-2-yl)thiazol-2-amine]: the IC50 is 500 to 5000 nM.

Take `c1ccc(-c2ccnc(Nc3nc(-c4ccccn4)cs3)c2)cc1` [Example 126, N-(4-phenylpyridin-2-yl)-4-(pyridin-2-yl)thiazol-2-amine]: the IC50 was under 200 nM.

In the case of `CC(C)c1cnc(Nc2nc(-c3ccccn3)cs2)cc1C(F)(F)F` [Example 127, N-(5-isopropyl-4-(trifluoro-methyl)pyridin-2-yl)-4-(pyridin-2-yl)thiazol-2-amine], the IC50 is 500 to 5000 nM.

`c1ccc(-c2csc(Nc3cc4ccccc4cn3)n2)nc1` [Example 128, N-(isoquinolin-3-yl)-4-(pyridin-2-yl)thiazol-2-amine]: the IC50 was under 200 nM.

Consider `Cc1cnc(Nc2nc(-c3ccccn3)cs2)cc1C(F)(F)F` [Example 129, N-(5-methyl-4-(trifluoro-methyl)pyridin-2-yl)-4-(pyridin-2-yl)thiazol-2-amine], for which the IC50 was under 200 nM.

Turning to `CCc1cnc(Nc2nc(-c3ccccn3)cs2)cc1C(F)(F)F` [Example 130, N-(5-ethyl-4-(trifluoro-methyl)pyridin-2-yl)-4-(pyridin-2-yl)thiazol-2-amine], the IC50 was under 200 nM.

For `CN1CCN(c2ccc(Nc3nc(-c4ccccn4)cs3)nc2)CC1` [Example 131, N-(5-(4-methyl-piperazin-1-yl)pyridin-2-yl)-4-(pyridin-2-yl)thiazol-2-amine], the IC50 is under 200 nM.

In the case of `Cc1ccnc(Nc2nc(-c3ccccn3)c(C)s2)c1` [Example 132, 5-methyl-N-(4-methyl-pyridin-2-yl)-4-(pyridin-2-yl)thiazol-2-amine], the IC50 lay within 200 to 500 nM.

As to `c1ccc(-c2csc(Nc3ccc4cc[nH]c4n3)n2)nc1` [Example 134, 4-(pyridin-2-yl)-N-(1H-pyrrolo [2,3-b]pyridin-6-yl)thiazol-2-amine], the IC50 was under 200 nM.

Take `c1ccc(-c2csc(Nc3ccc4[nH]ccc4n3)n2)nc1` [Example 135, 4-(pyridin-2-yl)-N-(1H-pyrrolo [3,2-b]pyridin-5-yl)thiazol-2-amine]: the IC50 was 500 to 5000 nM.

Regarding `c1ccc(-c2csc(Nc3cc4[nH]ccc4cn3)n2)nc1` [Example 136, 4-(pyridin-2-yl)-N-(1H-pyrrolo [3,2-c]pyridin-6-yl)thiazol-2-amine], the IC50 is under 200 nM.

As to `c1ccc(-c2csc(Nc3cc4cc[nH]c4cn3)n2)nc1` [Example 137, 4-(pyridin-2-yl)-N-(1H-pyrrolo [2,3-c]pyridin-5-yl)thiazol-2-amine], the IC50 was in the range of 500 to 5000 nM.

On to `c1ccc(-c2csc(Nc3ccc(C4CCCC4)cn3)n2)nc1` [Example 138, N-(5-cyclopentyl-pyridin-2-yl)-4-(pyridin-2-yl)thiazol-2-amine], for which the IC50 was under 200 nM.

With `NC(=O)c1ccnc(Nc2nc(-c3ccccn3)cs2)c1` [Example 139, 2-(4-(pyridin-2-yl)thiazol-2-ylamino) iso-nicotinamide], the IC50 was under 200 nM.

For the compound `FC(F)(F)c1cc(Nc2nc(-c3ccccn3)cs2)ncc1Br` [Example 140, N-(5-bromo-4-(trifluoro-methyl)pyridin-2-yl)-4-(pyridin-2-yl)thiazol-2-amine], the IC50 lay in the range of 500 to 5000 nM.

In the case of `O=C(NCC(F)(F)F)c1ccnc(Nc2nc(-c3ccccn3)cs2)c1` [Example 141, 2-(4-(pyridin-2-yl)thiazol-2-ylamino)-N-(2,2,2-trifluoroethyl) isonicotinamide], the IC50 is 200 to 500 nM.

For `COCCNC(=O)c1ccnc(Nc2nc(-c3ccccn3)cs2)c1` [Example 142, N-(2-methoxyethyl)-2-(4-(pyridin-2-yl)thiazol-2-ylamino) isonicotinamide], the IC50 lay in the range of 200 to 500 nM.

For the compound `O=C(c1ccnc(Nc2nc(-c3ccccn3)cs2)c1)N1CCOCC1` [Example 143, morpholino (2-(4-(pyridin-2-yl)thiazol-2-ylamino)pyridin-4-yl)methanone], the IC50 lay within 200 to 500 nM.

With `O=C(c1ccnc(Nc2nc(-c3ccccn3)cs2)c1)N1CCNCC1` [Example 144, piperazin-1-yl(2-(4-(pyridin-2-yl)thiazol-2-ylamino)pyridin-4-yl)methanone], the IC50 lay within 200 to 500 nM.

Consider `O=C(c1ccnc(Nc2nc(-c3ccccn3)cs2)c1)N1CCC(F)(F)CC1` [Example 145, (4,4-difluoro-piperidin-1-yl)(2-(4-(pyridin-2-yl)thiazol-2-ylamino)pyridin-4-yl)methanone], for which the IC50 was under 200 nM.

In the case of `CC(C)NC(=O)c1ccnc(Nc2nc(-c3ccccn3)cs2)c1` [Example 146, N-isopropyl-2-(4-(pyridin-2-yl)thiazol-2-ylamino) isonicotinamide], the IC50 was under 200 nM.

Turning to `O=C(NC1CCCC1)c1ccnc(Nc2nc(-c3ccccn3)cs2)c1` [Example 147, N-cyclopentyl-2-(4-(pyridin-2-yl)thiazol-2-ylamino) isonicotinamide], the IC50 was under 200 nM.

Take `C[C@@H](CO)NC(=O)c1ccnc(Nc2nc(-c3ccccn3)cs2)c1` [Example 148, (S)-N-(1-hydroxy-propan-2-yl)-2-(4-(pyridin-2-yl)thiazol-2-ylamino) isonicotinamide]: the IC50 lay within 200 to 500 nM.

As to `O=C1CN(C(=O)c2ccnc(Nc3nc(-c4ccccn4)cs3)c2)CCN1` [Example 149, 4-(2-(4-(pyridin-2-yl)thiazol-2-ylamino)isonicotinoyl) piperazin-2-one], the IC50 fell in the range of 500 to 5000 nM.

With `O=C(NC1CCC(C(F)(F)F)CC1)c1ccnc(Nc2nc(-c3ccccn3)cs2)c1` (centres unmarked) [Example 150, 2-(4-(pyridin-2-yl)thiazol-2-ylamino)-N-(4-(trifluoromethyl)cyclohexyl) isonicotinamide], the IC50 was under 200 nM.

Regarding `O=C(NC1CCC(F)(F)CC1)c1ccnc(Nc2nc(-c3ccccn3)cs2)c1` [Example 151, N-(4,4-difluoro-cyclohexyl)-2-(4-(pyridin-2-yl)thiazol-2-ylamino) isonicotinamide], the IC50 is under 200 nM.

On to `O=C(NCCN1CCCC1)c1ccnc(Nc2nc(-c3ccccn3)cs2)c1` [Example 152, 2-(4-(pyridin-2-yl)thiazol-2-ylamino)-N-(2-(pyrrolidin-1-yl)ethyl) isonicotinamide], for which the IC50 is 200 to 500 nM.

As to `O=C(c1ccnc(Nc2nc(-c3ccccn3)cs2)c1)N1CC(F)(F)C1` [Example 153, (3,3-difluoroazetidin-1-yl)(2-(4-(pyridin-2-yl)thiazol-2-ylamino)pyridin-4-yl)methanone], the IC50 was under 200 nM.

As for `O=C(NCCO)c1ccnc(Nc2nc(-c3ccccn3)cs2)c1` [Example 154, N-(2-hydroxyethyl)-2-(4-(pyridin-2-yl)thiazol-2-ylamino) isonicotinamide], the IC50 was in the range of 200 to 500 nM.

Turning to `O=C(N1CCN(c2ccc(Nc3nc(-c4ccccn4)cs3)nc2)CC1)C1(C(F)(F)F)CC1` [Example 155, (4-(6-(4-(pyridin-2-yl)thiazol-2-ylamino)pyridin-3-yl)piperazin-1-yl)(1-(trifluoromethyl)cyclopropyl) methanone], the IC50 was under 200 nM.

Consider `CC(C)(O)C(=O)N1CCN(c2ccc(Nc3nc(-c4ccccn4)cs3)nc2)CC1` [Example 156, 2-hydroxy-2-methyl-1-(4-(6-(4-(pyridin-2-yl)thiazol-2-ylamino)pyridin-3-yl)piperazin-1-yl)propan-1-one], for which the IC50 was under 200 nM.

With `O=C(O)C1CCCN(c2ccc(Nc3nc(-c4ccccn4)cs3)nc2)C1` (centres unmarked) [Example 157, 1-(6-(4-(pyridin-2-yl)thiazol-2-ylamino)pyridin-3-yl)piperidine-3-carboxylic acid], the IC50 was in the range of 500 to 5000 nM.
